Assay results from ChEMBL document CHEMBL5316343, “Design, Synthesis, and Biological Evaluation of a Potent Dual EZH2-BRD4 Inhibitor for the Treatment of Some Solid Tumors” (J Med Chem, 2023).
Activity calls are given as the source filed them. No cut-off for these calls is given here.

Experiments:
[1] = target: Bromodomain-containing protein 4 (Homo sapiens, UniProt O60885); test: Inhibition of BRD4 (unknown origin) by HTRF analysis
[2] = target: T1, Histone-lysine N-methyltransferase EZH1 (Homo sapiens, UniProt Q92800); test: Inhibition of EZH1 (unknown origin) by radiometric assay
T1 sequence (Q92800 whole entry): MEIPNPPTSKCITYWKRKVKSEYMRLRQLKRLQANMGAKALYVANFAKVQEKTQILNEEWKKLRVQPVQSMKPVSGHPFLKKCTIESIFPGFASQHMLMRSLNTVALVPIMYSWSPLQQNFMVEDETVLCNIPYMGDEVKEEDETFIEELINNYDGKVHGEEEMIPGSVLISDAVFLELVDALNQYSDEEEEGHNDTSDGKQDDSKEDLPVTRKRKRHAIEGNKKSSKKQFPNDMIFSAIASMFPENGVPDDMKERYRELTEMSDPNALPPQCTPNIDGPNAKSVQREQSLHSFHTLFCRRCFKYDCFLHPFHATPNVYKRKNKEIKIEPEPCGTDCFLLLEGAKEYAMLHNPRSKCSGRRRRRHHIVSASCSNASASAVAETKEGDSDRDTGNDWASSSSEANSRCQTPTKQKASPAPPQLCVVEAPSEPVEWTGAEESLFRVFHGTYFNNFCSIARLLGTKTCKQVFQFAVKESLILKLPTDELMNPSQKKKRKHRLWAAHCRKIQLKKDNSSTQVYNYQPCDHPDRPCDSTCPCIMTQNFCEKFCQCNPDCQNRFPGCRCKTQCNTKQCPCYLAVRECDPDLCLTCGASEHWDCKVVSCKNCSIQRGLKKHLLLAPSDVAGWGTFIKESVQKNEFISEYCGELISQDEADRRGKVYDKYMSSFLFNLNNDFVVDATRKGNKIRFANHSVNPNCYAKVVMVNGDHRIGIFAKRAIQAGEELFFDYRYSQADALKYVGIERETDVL

[3] = target: Bromodomain-containing protein 2 (Homo sapiens, UniProt P25440); test: Inhibition of BRD2-BD1/2 (unknown origin) by HTRF analysis
Bromodomain-containing protein 2, sequence (P25440 whole entry): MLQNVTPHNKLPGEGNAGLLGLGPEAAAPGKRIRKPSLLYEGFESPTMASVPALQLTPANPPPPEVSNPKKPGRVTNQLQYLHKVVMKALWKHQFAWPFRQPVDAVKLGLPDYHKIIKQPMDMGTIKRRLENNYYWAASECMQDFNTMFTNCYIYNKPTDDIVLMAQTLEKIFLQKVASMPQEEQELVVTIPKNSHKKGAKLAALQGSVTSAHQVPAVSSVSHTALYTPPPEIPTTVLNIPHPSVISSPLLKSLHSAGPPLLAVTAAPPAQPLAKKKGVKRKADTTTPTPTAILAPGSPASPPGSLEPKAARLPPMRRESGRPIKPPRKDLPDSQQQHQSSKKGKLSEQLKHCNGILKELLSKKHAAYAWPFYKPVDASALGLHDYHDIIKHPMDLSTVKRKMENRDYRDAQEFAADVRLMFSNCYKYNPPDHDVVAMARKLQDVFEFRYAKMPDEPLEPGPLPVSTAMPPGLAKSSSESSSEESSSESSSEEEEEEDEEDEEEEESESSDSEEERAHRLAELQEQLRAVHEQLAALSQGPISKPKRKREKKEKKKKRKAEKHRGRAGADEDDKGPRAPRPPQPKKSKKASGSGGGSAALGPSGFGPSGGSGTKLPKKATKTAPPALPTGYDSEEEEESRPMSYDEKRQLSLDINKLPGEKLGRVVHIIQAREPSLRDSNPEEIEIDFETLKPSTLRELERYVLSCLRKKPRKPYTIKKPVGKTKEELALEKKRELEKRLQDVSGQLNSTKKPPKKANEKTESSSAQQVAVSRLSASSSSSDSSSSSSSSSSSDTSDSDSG

[4] = tested on: PANC-1; test: Antiproliferative activity against human PANC-1 cells assessed as inhibition of cell proliferation incubated for 6 days by CCK8 assay; format: functional, cell-based; conditions: time 6.0 day
[5] = tested on: 95-D; test: Antiproliferative activity against human 95-D cells assessed as inhibition of cell proliferation incubated for 6 days by CCK8 assay; format: functional, cell-based; conditions: time 6.0 day
[6] = target: T2, Histone-lysine N-methyltransferase EZH2 (Homo sapiens, UniProt Q15910); test: Inhibition of EZH2 in human BX-PC-3 cells assessed as decrease in H3K27me3 level at 5 uM by fluorescence based analysis; format: cell-based; conditions: BXPC-3
T2 sequence (Q15910 whole entry, looked up): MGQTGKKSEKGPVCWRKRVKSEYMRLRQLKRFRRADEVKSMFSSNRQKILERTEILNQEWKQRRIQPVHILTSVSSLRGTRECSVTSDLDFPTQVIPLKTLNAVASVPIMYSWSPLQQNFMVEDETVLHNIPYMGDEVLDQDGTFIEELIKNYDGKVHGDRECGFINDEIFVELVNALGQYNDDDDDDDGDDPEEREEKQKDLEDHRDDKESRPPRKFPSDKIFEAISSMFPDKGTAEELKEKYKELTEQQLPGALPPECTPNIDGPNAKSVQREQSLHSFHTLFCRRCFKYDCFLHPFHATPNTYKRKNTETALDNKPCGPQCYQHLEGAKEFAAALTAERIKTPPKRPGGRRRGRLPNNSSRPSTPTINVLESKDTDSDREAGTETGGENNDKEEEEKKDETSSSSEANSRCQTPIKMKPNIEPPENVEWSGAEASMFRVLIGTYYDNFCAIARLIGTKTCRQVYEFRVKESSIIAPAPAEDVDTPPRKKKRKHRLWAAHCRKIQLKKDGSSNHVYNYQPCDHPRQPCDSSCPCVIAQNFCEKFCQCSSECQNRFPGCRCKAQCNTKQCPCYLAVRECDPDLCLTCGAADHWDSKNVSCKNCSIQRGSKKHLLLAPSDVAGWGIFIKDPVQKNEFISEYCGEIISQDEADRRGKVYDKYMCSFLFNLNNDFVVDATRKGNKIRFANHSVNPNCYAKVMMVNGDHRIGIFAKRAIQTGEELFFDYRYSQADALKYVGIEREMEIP

[7] = target: T2, Histone-lysine N-methyltransferase EZH2; test: Inhibition of EZH2 in human BXPC-3 cells assessed as increase in H3K27ac level at 5 uM by fluorescence based analysis; format: cell-based
[8] = tested on: MDA-MB-231; test: Induction of apoptosis in human MDA-MB-231 cells assessed as early apoptotic cells at 5 uM incubated for 48 hrs by Annexin V-FITC/PI staining based flow cytometric analysis (reference value: 0.69%); format: functional
[9] = tested on: MDA-MB-231; test: Induction of apoptosis in human MDA-MB-231 cells assessed as late apoptotic cells at 5 uM incubated for 48 hrs by Annexin V-FITC/PI staining based flow cytometric analysis (reference value: 1.06%); format: functional
[10] = tested on: MDA-MB-231; test: Induction of apoptosis in human MDA-MB-231 cells assessed as viable cells at 1 uM incubated for 48 hrs by Annexin V-FITC/PI staining based flow cytometric analysis (reference value: 97.63%); format: functional; conditions: read-out: Activity
[11] = tested on: MDA-MB-231; test: Induction of apoptosis in human MDA-MB-231 cells assessed as late apoptotic cells at 1 uM incubated for 48 hrs by Annexin V-FITC/PI staining based flow cytometric analysis (reference value: 1.06%); format: functional
[12] = tested on: MDA-MB-231; test: Induction of apoptosis in human MDA-MB-231 cells assessed as necrotic cells at 1 uM incubated for 48 hrs by Annexin V-FITC/PI staining based flow cytometric analysis (reference value: 0.63%); format: functional
[13] = tested on: MDA-MB-231; test: Induction of apoptosis in human MDA-MB-231 cells assessed as necrotic cells at 2.5 uM incubated for 48 hrs by Annexin V-FITC/PI staining based flow cytometric analysis (reference value: 0.63%); format: functional
[14] = tested on: BXPC-3; test: Induction of apoptosis in human BXPC-3 cells assessed as late apoptotic cells at 5 uM incubated for 48 hrs by Annexin V-FITC/PI staining based flow cytometric analysis (reference value: 4.38 %); format: functional
[15] = tested on: BXPC-3; test: Induction of apoptosis in human BXPC-3 cells assessed as necrotic cells at 5 uM incubated for 48 hrs by Annexin V-FITC/PI staining based flow cytometric analysis (reference value: 1.65 %); format: functional
[16] = tested on: BXPC-3; test: Induction of apoptosis in human BXPC-3 cells assessed as viable cells at 1 uM incubated for 48 hrs by Annexin V-FITC/PI staining based flow cytometric analysis (reference value: 90.70%); format: functional; conditions: read-out: Activity
[17] = tested on: BXPC-3; test: Induction of apoptosis in human BXPC-3 cells assessed as late apoptotic cells at 1 uM incubated for 48 hrs by Annexin V-FITC/PI staining based flow cytometric analysis (reference value: 4.38 %); format: functional
[18] = tested on: BXPC-3; test: Induction of apoptosis in human BXPC-3 cells assessed as viable cells at 2.5 uM incubated for 48 hrs by Annexin V-FITC/PI staining based flow cytometric analysis (reference value: 90.70%); format: functional; conditions: read-out: Activity
[19] = tested on: BXPC-3; test: Induction of apoptosis in human BXPC-3 cells assessed as necrotic cells at 2.5 uM incubated for 48 hrs by Annexin V-FITC/PI staining based flow cytometric analysis (reference value: 1.65 %); format: functional
[20] = tested on: MDA-MB-231; test: Inhibition of cell proliferation in human MDA-MB-231 cells assessed as decrease in c-Myc mRNA level at 5 uM incubated for 48 hrs by qRT-PCR analysis; format: functional, cell-based
[21] = Half-life in ICR mouse at 60 mg/kg, ip measured upto 24 hrs by LC-MS/MS analysis; format: ADME, organism-based; conditions: in vivo
[22] = MRT(0 to t) in ICR mouse at 60 mg/kg, ip measured upto 24 hrs by LC-MS/MS analysis; format: ADME, organism-based; conditions: in vivo
[23] = tested on: BXPC-3; test: Antitumor activity against human BXPC-3 cells xenografted in Balb/c nude mouse assessed as reduction in tumor growth at 30 mg/kg, ip administered daily for 30 days; format: functional, organism-based; conditions: time 30.0 day

`CCC(C)n1ccc2c(C(=O)NCc3c(C)cc(C)[nH]c3=O)cc(-c3cn(C)c(=O)c4[nH]ccc34)cc21` (stereo not drawn) showed an IC50 [1] of 147 nM, an IC50 [2] of 2580 nM and an IC50 [3] of 31 nM. The Activity [4] was “Active”, the Activity [5] was “Active” and the inhibition [6] was “Active”. The inhibition [7] was “Active”, the Activity [8] was 13.19% and the Activity [9] was 3.82%. It also gave a viability at 1 µM [10] of 94.8%, an Activity [11] of 1.36% and an Activity [12] of 0.87%. For the same compound, the Activity [13] was 1.38%, the Activity [14] was 23.83% and the Activity [15] was 3.35%. The viability at 1 µM [16] was 82.6%, the Activity [17] was 7.61% and the viability at 2.5 µM [18] was 71%. For the same compound, the Activity [19] was 2.86%, the inhibition [20] was “Active” and the half-life [21] was 13.6 h. The MRT last at 24 h [22] was 2.55 h and the Activity [23] was “inactive”.
